Where “and” joins values, the source holds several entries; their conditions need not be identical. Equal values may be shown once. Read-outs that look alike come from different tables or passages of the source.
Assays:
in vitro = conditions: human, cem-c113 cells
[1] = test system: HIV virus; viral reverse transcriptase; experiment: inhibition of viral replication by microassay of the enzymatic activity of the viral reverse transcriptase in CEM culture supernatants; format: cell-based; design: unit not given here
[2] = test system: HIV virus (isolate LAV1-BRU); experiment: inhibition of the cytopathogenic effect (CPE) of the HIV virus toward a continuous line of T4 lymphocytes by colorimetric assay with MTT; format: cell-based
[3] = HPLC assay of AZT in the brain of mice after oral administration; format: in vivo, Swiss mouse; conditions: for Phosphodiester detected by HPLC per gram of brain, mean (offset figure) / Phosphodiester detected by HPLC per gram of brain, individual value / Phosphotriester detected by HPLC per gram of brain, individual value: 25 mg/kg oral, 1 hour, CT 7625 0.64; for Phosphodiester detected by HPLC per gram of brain, mean (offset figure): AZT equivalent micromol per mouse: CT 6715 0.94, CT 6651 0.68; for Phosphodiester detected by HPLC per gram of brain, mean (offset figure) / Phosphodiester detected by HPLC per gram of brain, individual value: CT 7624 0.90; for Phosphodiester detected by HPLC per gram of brain, individual value: AZT equivalent micromol per mouse: CT 6715, CT 7626 0.94, CT 6651, CT 7627 0.68, 60 min; for Phosphodiester detected by HPLC per gram of brain, individual value / concentration at 1 h: 25 mg/kg; for Phosphotriester detected by HPLC per gram of brain, individual value: AZT equivalent micromol per mouse: CT 6651, CT 7627 0.68; for concentration at 1 h: mouse, brain, po, read-out: Phosphodiester detected by HPLC per gram of brain, individual value
Description: The assays are conducted on the Swiss mouse.
The compounds are dissolved in distilled water (or suspended in distilled water) before being administered by gavage; the assays are performed by administering each compound to 3 mice. The control consists of 3 mice receiving the equivalent of the vehicle, i.e. the same volume of distilled water as the treated mice. The brains are removed 1 hour after garage, homogenized in an acetonitrile-water (3/1) mixture, centrifuged and the supernatant is taken for the HPLC assay.
In a preliminary trial, favourable experimental conditions for the assays of the different compounds by HPLC are determined.
In the table which follows, each line corresponds to an assay series.

[4] = 31P-NMR study of the interactions between the phosphotriesters and model membranes (transmembrane transport)
[5] = test system: HIV virus (isolate LAV1-BRU); experiment: selectivity index / protection index (CD50/ED50 ratio); format: cell-based
Source text: Determination of the selectivity index
The higher the difference between the CD50 and the ED50, the more useful will be the product. This difference is quantified by the selectivity index (the CD50/ED50 ratio).

[6] = Human immunodeficiency virus 1, CEM-c113, read-out: ED50 (protective dose 50%), D7 of culture, CEM-C113 cells
[7] = Human immunodeficiency virus 1, CEM-c113, read-out: ED50 (protective dose 50%), D11 of culture, CEM-C113 cells
[8] = Human immunodeficiency virus 1, CEM-c113, read-out: ED50 (protective dose 50%), D19 of culture, CEM-C113 cells
[9] = Human immunodeficiency virus 1, CEM-c113, read-out: ED50 (protective dose 50%), D22 of culture, CEM-C113 cells

Row | EC50 [2, 6] [nM] | EC50 [2, 7] [nM] | EC50 [2, 8] [nM] | EC50 [2, 9] [nM] | Compound | CC50 at 168 h (in vitro) [nM] | CC50 at 264 h (in vitro) [nM] | CC50 at 456 h (in vitro) [nM] | CC50 at 528 h (in vitro) [nM] | reverse transcriptase activity in culture supernatant ([1]; 0.2 uM, D7) | reverse transcriptase activity in culture supernatant ([1]; 0.2 uM, D11) | reverse transcriptase activity in culture supernatant ([1]; 0.2 uM, D18) | reverse transcriptase activity in culture supernatant ([1]; 0.2 uM, D19) | reverse transcriptase activity in culture supernatant ([1]; 0.2 uM, D22) | reverse transcriptase activity in culture supernatant ([1]; 0.2 uM, D26) | reverse transcriptase activity in culture supernatant ([1]; 1 uM, D7) | reverse transcriptase activity in culture supernatant ([1]; 1 uM, D11) | reverse transcriptase activity in culture supernatant ([1]; 1 uM, D18) | reverse transcriptase activity in culture supernatant ([1]; 1 uM, D19) | reverse transcriptase activity in culture supernatant ([1]; 1 uM, D22) | reverse transcriptase activity in culture supernatant ([1]; 1 uM, D26) | also measured
1 | < 200 | < 200 | < 200 | 800 | Cc1cn([C@H]2C[C@H](N=[N+]=[N-])[C@@H](COP(=O)(O)OCCO[C@H]3O[C@H](CO)[C@@H](O)[C@H](O)[C@@H]3O)O2)c(=O)[nH]c1=O [CT 7624, 1ethoxy D-mannosyl 5'-(3'-azido) thymidinyl phosphate] | 25000 | > 25000 | > 25000 | > 25000 | 4400 | 2800 | 2600 | 24000 | 27000 | 70000 | 2800 | 1900 | 2200 | 12000 | 26000 | 55000 | reverse transcriptase activity in culture supernatant ([1]; 5 uM, D7): 1670; reverse transcriptase activity in culture supernatant ([1]; 5 uM, D11): 1003; reverse transcriptase activity in culture supernatant ([1]; 5 uM, D18): 852; reverse transcriptase activity in culture supernatant ([1]; 5 uM, D19): 2700; reverse transcriptase activity in culture supernatant ([1]; 5 uM, D22): 5500; reverse transcriptase activity in culture supernatant ([1]; 5 uM, D26): 42000; reverse transcriptase activity in culture supernatant ([1]; 25 uM, D7): 1204; reverse transcriptase activity in culture supernatant ([1]; 25 uM, D11): 372; reverse transcriptase activity in culture supernatant ([1]; 25 uM, D18): 304; reverse transcriptase activity in culture supernatant ([1]; 25 uM, D19): 2100; reverse transcriptase activity in culture supernatant ([1]; 25 uM, D22): 500; reverse transcriptase activity in culture supernatant ([1]; 25 uM, D26): 1700; Phosphodiester detected by HPLC per gram of brain, mean (offset figure) [3]: 2.31 µg; Phosphodiester detected by HPLC per gram of brain, individual value [3]: 0.92 µg and 3.70 µg
2 | < 200 | 1000 | > 1000 | > 1000 | CCCCCCCCCCCCCCCCOP(=O)(OCCO[C@H]1O[C@H](CO)[C@@H](O)[C@H](O)[C@@H]1O)OC[C@H]1O[C@@H](n2cc(C)c(=O)[nH]c2=O)C[C@@H]1N=[N+]=[N-] (stereo partly drawn) [CT 7625, 1-ethoxy D-mannosyl hexadecyl 5'-(3'-azido) thymidinyl phosphate] | 20000 | 28000 | 3400 | 24000 | 3900 | 2900 | 2400 | 25000 | 52000 | 61000 | 6000 | 6000 | 5500 | 47000 | 48000 | 64000 | interaction with / location in unilamellar vesicles (in words) [4]: found in the intravesicular aqueous phase; Phosphotriester detected by HPLC per gram of brain, individual value [3]: 0 µg; Phosphodiester detected by HPLC per gram of brain, mean (offset figure) [3]: 2.34 µg; Phosphodiester detected by HPLC per gram of brain, individual value [3]: 1.17 µg and 3.51 µg
3 | < 200 | 200 | 200 | 600 | Cc1cn([C@H]2C[C@H](N=[N+]=[N-])[C@@H](COP(=O)(O)OC[C@H]3OC(O)[C@@H](O)[C@@H](O)[C@@H]3O)O2)c(=O)[nH]c1=O (stereo partly drawn) [CT 7626, 6-D-mannosyl-5'(3'-azido) thymidinyl phosphate] | > 25000 | > 25000 | 24000 | 24000 | 3400 | 3000 | 1700 | 12000 | 27000 | 85000 | 2700 | 1300 | 1200 | 5000 | 15000 | 50000 | reverse transcriptase activity in culture supernatant ([1]; 5 uM, D7): 1500; reverse transcriptase activity in culture supernatant ([1]; 5 uM, D11): 1000; reverse transcriptase activity in culture supernatant ([1]; 5 uM, D18): 1300; reverse transcriptase activity in culture supernatant ([1]; 5 uM, D19): 8000; reverse transcriptase activity in culture supernatant ([1]; 5 uM, D22): 12000; reverse transcriptase activity in culture supernatant ([1]; 5 uM, D26): 100000; reverse transcriptase activity in culture supernatant ([1]; 25 uM, D7): 1100; reverse transcriptase activity in culture supernatant ([1]; 25 uM, D11): 700; reverse transcriptase activity in culture supernatant ([1]; 25 uM, D18): 900; reverse transcriptase activity in culture supernatant ([1]; 25 uM, D19): 2200; reverse transcriptase activity in culture supernatant ([1]; 25 uM, D22): 900; reverse transcriptase activity in culture supernatant ([1]; 25 uM, D26): 900; concentration at 1 h [3]: 2050 ng/g
4 | < 200 | 300 | 500 | 400 | CCCCCCCCCCCCCCCCOP(=O)(OC[C@H]1OC(O)[C@@H](O)[C@@H](O)[C@@H]1O)OC[C@H]1O[C@@H](n2cc(C)c(=O)[nH]c2=O)C[C@@H]1N=[N+]=[N-] (stereo partly drawn) [CT 7627, 6-D-mannosyl hexadecyl 5'-(3'-azido)-thymidinyl phosphate] | 2600 | 2600 | 2500 | 25000 | 4000 | 4700 | 1700 | 11000 | 24000 | 73000 | 2000 | 1100 | 500 | 1400 | 3900 | 20000 | interaction with / location in unilamellar vesicles (in words) [4]: interacts only with the external lipid layer of the unilamellar vesicles; PROTECTION INDICES (P.I.), CD50/ED50 [5]: > 13; Phosphotriester detected by HPLC per gram of brain, individual value [3]: 0 µg; concentration at 1 h [3]: 2050 ng/g
5 | < 200 |  |  |  | Nc1ccn([C@H]2CC[C@@H](CO)O2)c(=O)n1 [ddC, dideoxycytidine, reference compound] | 7000 | 400 | < 200 | < 200 |  |  |  |  |  |  |  |  |  |  |  |  | PROTECTION INDICES (P.I.), CD50/ED50 ([5]; D7): > 35
6 | < 200 | 700 | 800 | > 25000 | Cc1cn([C@H]2CC[C@@H](CO)O2)c(=O)[nH]c1=O [ddT, 2', 3'-dideoxy thymidine, reference compound] | > 25000 | < 25000 | > 25000 | > 25000 |  |  |  |  |  |  | 3000 | 1500 | 750 | 1200 | 350 | 600 | reverse transcriptase activity in culture supernatant ([1]; 5 uM, D7): 5000; reverse transcriptase activity in culture supernatant ([1]; 5 uM, D11): 2000; reverse transcriptase activity in culture supernatant ([1]; 5 uM, D18): 1400; reverse transcriptase activity in culture supernatant ([1]; 5 uM, D19): 5000; reverse transcriptase activity in culture supernatant ([1]; 5 uM, D22): 2100; reverse transcriptase activity in culture supernatant ([1]; 5 uM, D26): 5000; reverse transcriptase activity in culture supernatant ([1]; 25 uM, D7): 2500; reverse transcriptase activity in culture supernatant ([1]; 25 uM, D11): 1000; reverse transcriptase activity in culture supernatant ([1]; 25 uM, D18): 800; reverse transcriptase activity in culture supernatant ([1]; 25 uM, D19): 7000; reverse transcriptase activity in culture supernatant ([1]; 25 uM, D22): 4000; reverse transcriptase activity in culture supernatant ([1]; 25 uM, D26): 5000
